Results from patent US11760754B2, “Heterocyclic mitochondrial activity inhibitors and uses thereof” (UNIVERSITÉ DE MONTRÉAL, priority 2017, dated 2023).
Like-named read-outs stand apart in the source and are kept apart here.

Legend:
MLL-AF9 cells = assay: MLL-AF9 leukemia cell growth inhibition, dose-response viability assay (CellTiterGlo); type: cell-based, murine; settings: Mus musculus, read-out: MLL-AF9 EC50
Protocol: (§1) The potency of the compounds of Example 6 at inhibiting OCI-AML3 cell growth was tested using a procedure similar to that described for Mutritinib in Example 1. […] Murine MLL-AF9 leukemia cells (female cells) were generated by infection with VSV-G-pseudotyped MSCV MLL-AF9 IRES Puro (subcloned from a construct by Frédéric Barabé, Laval U, Quebec, QC, Canada).
(§2) Compounds were added to seeded cells in serial dilutions from 10 μM to 0.5 nM, in duplicates or quadruplicates.

OCI-AML3 cells = assay: OCI-AML3 cell growth inhibition, dose-response viability assay (CellTiterGlo); type: cell-based; settings: Homo sapiens, OCI-AML-3, 144 h, read-out: AML-3 EC50
Protocol: Cell dose-response viability assays. […] In the initial screen, compounds were added to seeded cells in serial dilutions (10 dilutions, 1:3, starting from […] 20 μM), in duplicates.
as §1, §2

| Structure (SMILES) | EC50 (MLL-AF9 cells; MLL-AF9, 120 h) [nM] | EC50 (OCI-AML3 cells) [nM] | EC50 (MLL-AF9 cells; 120 h, MLL-AF9 cells, 5 days of culture, CellTiterGlo) [nM] | EC50 (OCI-AML3 cells; OCI-AML3 cells, 6 days of culture, CellTiterGlo) [nM] |
| --- | --- | --- | --- | --- |
| OC(CCCn1ccnn1)c1ccc(OCc2coc(/C=C/c3ccc(C(F)(F)F)cc3F)n2)cc1 (centres unmarked) [Compound 23, (E)-1-(4-((2-(2-fluoro-4-(trifluoromethyl)styryl)oxazol-4-yl)methoxy)phenyl)-4-(1H-1,2,3-triazol-1-yl)butan-1-ol] | 50 to 100 | 100 to 500 | – | – |
| O=C(CCCn1ccnn1)c1ccc(OCc2coc(/C=C/c3ccc([N+](=O)[O-])cc3F)n2)cc1 [Compound 24, (E)-1-(4-((2-(2-fluoro-4-nitrostyryl)oxazol-4-yl)methoxy)phenyl)-4-(1H-1,2,3-triazol-1-yl)butan-1-one] | 500 to 1000 | 1000 to 10000 | – | – |
| O=[N+]([O-])c1ccc(/C=C/c2nc(COc3ccc(C(O)CCCn4ccnn4)cc3)co2)c(F)c1 (centres unmarked) [Compound 25, (E)-1-(4-((2-(2-fluoro-4-nitrostyryl)oxazol-4-yl)methoxy)phenyl)-4-(1H-1,2,3-triazol-1-yl)butan-1-ol] | 500 to 1000 | 1000 to 10000 | – | – |
| FC(F)(F)c1ccc(/C=C/c2nc(CNc3ccc(CCCCn4ccnn4)cc3)co2)cc1 [Compound 26, (E)-4-(4-(1H-1,2,3-triazol-1-yl)butyl)-N-((2-(4-(trifluoromethyl)styryl)oxazol-4-yl)methyl)aniline] | 100 to 500 | 1000 to 10000 | – | – |
| Fc1cc(Br)ccc1/C=C/c1nc(CNc2ccc(CCCCn3ccnn3)cc2)co1 [Compound 27, (E)-4-(4-(1H-1,2,3-triazol-1-yl)butyl)-N-((2-(4-bromo-2-fluorostyryl)oxazol-4-yl)methyl)aniline] | 50 to 100 | 500 to 1000 | – | – |
| FC(F)(F)c1ccc(-c2nc(COc3ccc(CCCCn4ccnn4)cc3)co2)cc1 [Compound 28, 4-((4-(4-(1H-1,2,3-triazol-1-yl)butyl)phenoxy)methyl)-2-(4-(trifluoromethyl)phenyl)oxazole] | – | – | 100 to 500 | 1000 to 10000 |
| O=C(Nc1ccc(CCCCO)cc1)c1coc(/C=C/c2ccc(C(F)(F)F)cc2)n1 [Compound 29, (E)-N-(4-(4-hydroxybutyl)phenyl)-2-(4-(trifluoromethyl)styryl)oxazole-4-carboxamide] | 100 to 500 | 1000 to 10000 | – | – |
| O=C(Nc1ccc(CCCCn2ccnn2)cc1)c1coc(/C=C/c2ccc(C(F)(F)F)cc2)n1 [Compound 30, (E)-N-(4-(4-(1H-1,2,3-triazol-1-yl)butyl)phenyl)-2-(4-(trifluoromethyl)styryl)oxazole-4-carboxamide] | 100 to 500 | 500 to 1000 | – | – |
| CN(C)c1cccc2c(S(=O)(=O)NCCc3cn(CCCCc4ccc(OCc5coc(/C=C/c6ccc(C(F)(F)F)cc6)n5)cc4)nn3)cccc12 [Compound 31, (E)-5-(dimethylamino)-N-(2-(1-(4-(4-((2-(4-(trifluoromethyl)styryl)oxazol-4-yl)methoxy)phenyl)butyl)-1H-1,2,3-triazol-4-yl)ethyl)naphthalene-1-sulfonamide] | 500 to 1000 | 1000 to 10000 | – | – |
| COc1ccc(/C=C/c2nc(COc3ccc(CCCCn4ccnn4)cc3)co2)cc1 [Compound 32, (E)-4-((4-(4-(1H-1,2,3-triazol-1-yl)butyl)phenoxy)methyl)-2-(4-methoxystyryl)oxazole] | 100 to 500 | 100 to 500 | – | – |
| Brc1ccc(/C=C/c2nc(COc3ccc(CCCCn4ccnn4)cc3)co2)cc1 [Compound 33, (E)-4-((4-(4-(1H-1,2,3-triazol-1-yl)butyl)phenoxy)methyl)-2-(4-bromostyryl)oxazole] | 100 to 500 | 100 to 500 | – | – |
| CCN(CC)C(=O)OCCCCc1ccc(OCc2coc(/C=C/c3ccc(C(F)(F)F)cc3)n2)cc1 [Compound 34, (E)-4-(4-((2-(4-(trifluoromethyl)styryl)oxazol-4-yl)methoxy)phenyl)butyl diethylcarbamate] | 1000 to 10000 | 1000 to 10000 | – | – |
| O=C(OCCCCc1ccc(OCc2coc(/C=C/c3ccc(C(F)(F)F)cc3)n2)cc1)N1CCOCC1 [Compound 35, (E)-4-(4-((2-(4-(trifluoromethyl)styryl)oxazol-4-yl)methoxy)phenyl)butyl morpholine-4-carboxylate] | 500 to 1000 | 1000 to 10000 | – | – |
| CN(C)C(=O)OCCCCc1ccc(OCc2coc(/C=C/c3ccc(C(F)(F)F)cc3)n2)cc1 [Compound 36, (E)-4-(4-((2-(4-(trifluoromethyl)styryl)oxazol-4-yl)methoxy)phenyl)butyl dimethylcarbamate] | 1000 to 10000 | 1000 to 10000 | – | – |
| N#Cc1ccc(/C=C/c2nc(COc3ccc(CCCCn4ccnn4)cc3)co2)cc1 [Compound 37, (E)-4-(2-(4-((4-(4-(1H-1,2,3-triazol-1-yl)butyl)phenoxy)methyl)oxazol-2-yl)vinyl)benzonitrile] | 100 to 500 | 100 to 500 | – | – |

Second part, the molecule after the results:

| EC50 (MLL-AF9 cells; MLL-AF9, 120 h) [nM] | EC50 (OCI-AML3 cells) [nM] | EC50 (MLL-AF9 cells; 120 h, MLL-AF9 cells, 5 days of culture, CellTiterGlo) [nM] | EC50 (OCI-AML3 cells; OCI-AML3 cells, 6 days of culture, CellTiterGlo) [nM] | Structure (SMILES) |
| --- | --- | --- | --- | --- |
| 100 to 500 | 50 to 100 | – | – | Clc1ccc(/C=C/c2nc(COc3ccc(CCCCn4ccnn4)cc3)co2)cc1 [Compound 38, (E)-4-((4-(4-(1H-1,2,3-triazol-1-yl)butyl)phenoxy)methyl)-2-(4-chlorostyryl)oxazole] |
| 100 to 500 | 100 to 500 | – | – | Fc1ccc(/C=C/c2nc(COc3ccc(CCCCn4ccnn4)cc3)co2)cc1 [Compound 39, (E)-4-((4-(4-(1H-1,2,3-triazol-1-yl)butyl)phenoxy)methyl)-2-(4-fluorostyryl)oxazole] |
| 100 to 500 | 50 to 100 | – | – | O=[N+]([O-])c1ccc(/C=C/c2nc(COc3ccc(CCCCn4ccnn4)cc3)co2)cc1 [Compound 40, (E)-4-((4-(4-(1H-1,2,3-triazol-1-yl)butyl)phenoxy)methyl)-2-(4-nitrostyryl)oxazole] |
| 100 to 500 | 100 to 500 | – | – | Fc1ccccc1/C=C/c1nc(COc2ccc(CCCCn3ccnn3)cc2)co1 [Compound 41, (E)-4-((4-(4-(1H-1,2,3-triazol-1-yl)butyl)phenoxy)methyl)-2-(2-fluorostyryl)oxazole] |
| 100 to 500 | 500 to 1000 | – | – | O=[N+]([O-])c1ccccc1/C=C/c1nc(COc2ccc(CCCCn3ccnn3)cc2)co1 [Compound 42, (E)-4-((4-(4-(1H-1,2,3-triazol-1-yl)butyl)phenoxy)methyl)-2-(2-nitrostyryl)oxazole] |
| 1000 to 10000 | 1000 to 10000 | – | – | O=[N+]([O-])c1cccc(/C=C/c2nc(COc3ccc(CCCCn4ccnn4)cc3)co2)c1 [Compound 43, (E)-4-((4-(4-(1H-1,2,3-triazol-1-yl)butyl)phenoxy)methyl)-2-(3-nitrostyryl)oxazole] |
| > 10000 | 1000 to 10000 | – | – | FC(F)(F)c1ccccc1/C=C/c1nc(COc2ccc(CCCCn3ccnn3)cc2)co1 [Compound 44, (E)-4-((4-(4-(1H-1,2,3-triazol-1-YI)butyl)phenoxy)methyl)-2-(2-(trifluoromethyl)styryl)oxazole] |
| 100 to 500 | 50 to 100 | – | – | Fc1ccc(/C=C/c2nc(COc3ccc(CCCCn4ccnn4)cc3)co2)c(F)c1 [Compound 45, (E)-4-((4-(4-(1H-1,2,3-triazol-1-yl)butyl)phenoxy)methyl)-2-(2,4-difluorostyryl)oxazole] |
| 1000 to 10000 | 500 to 1000 | – | – | Fc1cccc(F)c1/C=C/c1nc(COc2ccc(CCCCn3ccnn3)cc2)co1 [Compound 46, (E)-4-((4-(4-(1H-1,2,3-triazol-1-yl)butyl)phenoxy)methyl)-2-(2,6-difluorostyryl)oxazole] |
| 100 to 500 | 100 to 500 | – | – | C(=C\c1nc(COc2ccc(CCCCn3ccnn3)cc2)co1)/c1ccccc1 [Compound 47, (E)-4-((4-(4-(1H-1,2,3-triazol-1-yl)butyl)phenoxy)methyl)-2-styryloxazole] |
| < 50 | 50 to 100 | – | – | Fc1cc(C(F)(F)F)ccc1/C=C/c1nc(COc2ccc(CCCCn3ccnn3)cc2)co1 [Compound 48, (E)-4-((4-(4-(1H-1,2,3-triazol-1-yl)butyl)phenoxy)methyl)-2-(2-fluoro-4-(trifluoromethyl)styryl)oxazole] |
| 1000 to 10000 | 1000 to 10000 | – | – | FC(F)(F)c1cccc(/C=C/c2nc(COc3ccc(CCCCn4ccnn4)cc3)co2)c1 [Compound 49, (E)-4-((4-(4-(1H-1,2,3-triazol-1-yl)butyl)phenoxy)methyl)-2-(3-(trifluoromethyl)styryl)oxazole] |
| 100 to 500 | 1000 to 10000 | – | – | FC(F)(F)c1ccc(/C=C/c2nc(COc3ccc(CCCn4ccnn4)cc3)co2)cc1 [Compound 50, (E)-4-((4-(3-(1H-1,2,3-triazol-1-yl)propyl)phenoxy)methyl)-2-(4-(trifluoromethyl)styryl)oxazole] |
| 500 to 1000 | 1000 to 10000 | – | – | OCCc1nccn1CCCCc1ccc(OCc2coc(/C=C/c3ccc(C(F)(F)F)cc3)n2)cc1 [Compound 51, (E)-2-(1-(4-(4-((2-(4-(trifluoromethyl)styryl)oxazol-4-yl)methoxy)phenyl)butyl)-1H-imidazol-2-yl)ethanol] |
| 1000 to 10000 | 1000 to 10000 | – | – | NCCc1nccn1CCCCc1ccc(OCc2coc(/C=C/c3ccc(C(F)(F)F)cc3)n2)cc1 [Compound 52, (E)-2-(1-(4-(4-((2-(4-(trifluoromethyl)styryl)oxazol-4-yl)methoxy)phenyl)butyl)-1H-imidazol-2-yl)ethanamine] |
| 50 to 100 | 100 to 500 | – | – | CN(C)C(=O)OCCc1nccn1CCCCc1ccc(OCc2coc(/C=C/c3ccc(C(F)(F)F)cc3)n2)cc1 [Compound 53, (E)-2-(1-(4-(4-((2-(4-(trifluoromethyl)styryl)oxazol-4-yl)methoxy)phenyl)butyl)-1H-imidazol-2-yl)ethyl dimethylcarbamate] |
